Test results from PubChem BioAssay (NCI).
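Method: 48-hour compound exposure of cells in 96-well plates, five concentrations, linear interpolation of endpoints. TGI: concentration producing complete growth inhibition.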

How the values were obtained:
Experiment in all cases: NCI anticancer screen, dose series, 48 h
KM12 colon = system: KM12 colon
SK-MEL-28 melanoma = system: SK-MEL-28 melanoma
HCT-116 colon = system: HCT-116 colon
A549 NSCLC = system: A549 NSCLC
HL-60(TB) leukemia = system: HL-60(TB) leukemia
MCF7 breast = system: MCF7 breast
LOX IMVI melanoma = system: LOX IMVI melanoma
OVCAR-5 ovarian = system: OVCAR-5 ovarian
UACC-62 melanoma = system: UACC-62 melanoma
IGROV1 ovarian = system: IGROV1 ovarian
K-562 leukemia = system: K-562 leukemia
NCI-H460 lung = system: NCI-H460 lung
TK-10 renal = system: TK-10 renal
U251 CNS = system: U251 CNS
SW-620 colon = system: SW-620 colon
DU-145 prostate = system: DU-145 prostate
HS 578T breast = system: HS 578T breast
HCT-15 colon = system: HCT-15 colon
SNB-75 CNS = system: SNB-75 CNS
HOP-62 NSCLC = system: HOP-62 NSCLC
MDA-N = system: MDA-N
786-0 renal = system: 786-0 renal
A498 renal = system: A498 renal
SF-295 CNS = system: SF-295 CNS
RXF 393 renal = system: RXF 393 renal
SK-MEL-5 melanoma = system: SK-MEL-5 melanoma
NCI-H226 lung = system: NCI-H226 lung
T-47D breast = system: T-47D breast
SF-268 CNS = system: SF-268 CNS
SNB-19 CNS = system: SNB-19 CNS
SR leukemia = system: SR leukemia
M14 melanoma = system: M14 melanoma
OVCAR-3 ovarian = system: OVCAR-3 ovarian
MOLT-4 leukemia = system: MOLT-4 leukemia
PC-3 prostate = system: PC-3 prostate
NCI-H522 lung = system: NCI-H522 lung
SF-539 CNS = system: SF-539 CNS
NCI/ADR-RES ovarian = system: NCI/ADR-RES ovarian
RPMI-8226 leukemia = system: RPMI-8226 leukemia
BT-549 breast = system: BT-549 breast
EKVX NSCLC = system: EKVX NSCLC
OVCAR-8 ovarian = system: OVCAR-8 ovarian
COLO 205 colon = system: COLO 205 colon
SK-OV-3 ovarian = system: SK-OV-3 ovarian
HT29 colon = system: HT29 colon
UACC-257 melanoma = system: UACC-257 melanoma
MALME-3M melanoma = system: MALME-3M melanoma
SK-MEL-2 melanoma = system: SK-MEL-2 melanoma
NCI-H23 lung = system: NCI-H23 lung
HOP-92 NSCLC = system: HOP-92 NSCLC
MDA-MB-231 breast = system: MDA-MB-231 breast
CCRF-CEM leukemia = system: CCRF-CEM leukemia
ACHN renal = system: ACHN renal
SN12C renal = system: SN12C renal
MDA-MB-435 = system: MDA-MB-435
OVCAR-4 ovarian = system: OVCAR-4 ovarian
CAKI-1 renal = system: CAKI-1 renal
UO-31 renal = system: UO-31 renal
HCC-2998 colon = system: HCC-2998 colon

SMILES: Cc1ccc(CSC(N)=Nc2ccccc2)cc1C
- TGI (KM12 colon): 39.7 µM
- TGI (SK-MEL-28 melanoma): 45.1 µM
- TGI (HCT-116 colon): 32.1 µM
- TGI (A549 NSCLC): > 100 µM
- TGI (HL-60(TB) leukemia): 62.9 µM
- TGI (MCF7 breast): 37.9 µM
- TGI (LOX IMVI melanoma): 36.2 µM
- TGI (OVCAR-5 ovarian): 56.4 µM
- TGI (UACC-62 melanoma): 26.6 µM
- TGI (IGROV1 ovarian): 57.5 µM
- TGI (K-562 leukemia): 61.7 µM
- TGI (NCI-H460 lung): 39 µM
- TGI (TK-10 renal): 86.7 µM
- TGI (U251 CNS): 31.6 µM
- TGI (SW-620 colon): > 100 µM
- TGI (DU-145 prostate): 55.4 µM
- TGI (HS 578T breast): 49.1 µM
- TGI (HCT-15 colon): 60.1 µM
- TGI (SNB-75 CNS): 63.9 µM
- TGI (HOP-62 NSCLC): 49.1 µM
- TGI (MDA-N): 43.8 µM
- TGI (786-0 renal): 44.7 µM
- TGI (A498 renal): 33.2 µM
- TGI (SF-295 CNS): > 100 µM
- TGI (RXF 393 renal): 33.4 µM
- TGI (SK-MEL-5 melanoma): 34.9 µM
- TGI (NCI-H226 lung): 43 µM
- TGI (T-47D breast): 45 µM
- TGI (SF-268 CNS): 36.7 µM
- TGI (SNB-19 CNS): 65.9 µM
- TGI (SR leukemia): 55.8 µM
- TGI (M14 melanoma): 41.2 µM
- TGI (OVCAR-3 ovarian): 44 µM
- TGI (MOLT-4 leukemia): 75.4 µM
- TGI (PC-3 prostate): 60.5 µM
- TGI (NCI-H522 lung): 35.4 µM
- TGI (SF-539 CNS): 53.1 µM
- TGI (NCI/ADR-RES ovarian): 52.8 µM
- TGI (RPMI-8226 leukemia): 75.9 µM
- TGI (BT-549 breast): 50.8 µM
- TGI (EKVX NSCLC): 75.8 µM
- TGI (OVCAR-8 ovarian): 45.9 µM
- TGI (COLO 205 colon): 41.5 µM
- TGI (SK-OV-3 ovarian): 54.7 µM
- TGI (HT29 colon): 40.1 µM
- TGI (UACC-257 melanoma): 36.9 µM
- TGI (MALME-3M melanoma): 34.2 µM
- TGI (SK-MEL-2 melanoma): 33.6 µM
- TGI (NCI-H23 lung): 57 µM
- TGI (HOP-92 NSCLC): 45.7 µM
- TGI (MDA-MB-231 breast): 33.6 µM
- TGI (CCRF-CEM leukemia): > 100 µM
- TGI (ACHN renal): > 100 µM
- TGI (SN12C renal): 38.5 µM
- TGI (MDA-MB-435): 30.7 µM
- TGI (OVCAR-4 ovarian): 36.5 µM
- TGI (CAKI-1 renal): 60.9 µM

SMILES: c1ccc2c3[nH]c(c2c1)=Nc1ccc(cc1)-c1nc2ccc(cc2o1)N=c1[nH]c(c2ccccc12)=Nc1ccc2nc(oc2c1)-c1ccc(cc1)N=3
- TGI (KM12 colon): > 100 µM
- TGI (SK-MEL-28 melanoma): > 100 µM
- TGI (HCT-116 colon): > 100 µM
- TGI (A549 NSCLC): > 100 µM
- TGI (HL-60(TB) leukemia): 12.4 µM
- TGI (MCF7 breast): > 100 µM
- TGI (LOX IMVI melanoma): > 100 µM
- TGI (OVCAR-5 ovarian): > 100 µM
- TGI (UACC-62 melanoma): > 100 µM
- TGI (IGROV1 ovarian): > 100 µM
- TGI (K-562 leukemia): 51.5 µM
- TGI (NCI-H460 lung): 20.5 µM
- TGI (TK-10 renal): > 100 µM
- TGI (U251 CNS): 88.3 µM
- TGI (SW-620 colon): > 100 µM
- TGI (DU-145 prostate): > 100 µM
- TGI (HS 578T breast): > 100 µM
- TGI (HCT-15 colon): 25.3 µM
- TGI (SNB-75 CNS): > 100 µM
- TGI (HOP-62 NSCLC): > 100 µM
- TGI (MDA-N): > 100 µM
- TGI (786-0 renal): > 100 µM
- TGI (A498 renal): > 100 µM
- TGI (SF-295 CNS): > 100 µM
- TGI (RXF 393 renal): > 100 µM
- TGI (SK-MEL-5 melanoma): 29.4 µM
- TGI (NCI-H226 lung): > 100 µM
- TGI (T-47D breast): > 100 µM
- TGI (SF-268 CNS): > 100 µM
- TGI (UO-31 renal): 45.5 µM
- TGI (SNB-19 CNS): 81 µM
- TGI (SR leukemia): 71.6 µM
- TGI (M14 melanoma): > 100 µM
- TGI (OVCAR-3 ovarian): > 100 µM
- TGI (MOLT-4 leukemia): > 100 µM
- TGI (PC-3 prostate): > 100 µM
- TGI (NCI-H522 lung): > 100 µM
- TGI (SF-539 CNS): > 100 µM
- TGI (NCI/ADR-RES ovarian): > 100 µM
- TGI (RPMI-8226 leukemia): 86.2 µM
- TGI (BT-549 breast): > 100 µM
- TGI (EKVX NSCLC): > 100 µM
- TGI (OVCAR-8 ovarian): > 100 µM
- TGI (COLO 205 colon): 67.8 µM
- TGI (SK-OV-3 ovarian): > 100 µM
- TGI (HT29 colon): > 100 µM
- TGI (UACC-257 melanoma): > 100 µM
- TGI (SK-MEL-2 melanoma): > 100 µM
- TGI (NCI-H23 lung): > 100 µM
- TGI (HOP-92 NSCLC): > 100 µM
- TGI (HCC-2998 colon): 42.7 µM
- TGI (MDA-MB-231 breast): > 100 µM
- TGI (CCRF-CEM leukemia): 26.7 µM
- TGI (ACHN renal): 35.5 µM
- TGI (SN12C renal): > 100 µM
- TGI (MDA-MB-435): > 100 µM
- TGI (CAKI-1 renal): > 100 µM
